# Measurements published in patent publication US10899747B2, “Biaryl piperidine amide compounds and methods of use thereof” (Athenex, Inc., priority 2017, dated 2021).
# System: IL-2
# Test: PHA-IL2 (cell activation and cytokine analysis)
# Type: cell-based
# Settings: 50% inhibition concentration class
# Protocol: Cells to be tested may include, but are not limited to, a) Jurkat (a transformed human T cell leukemia), b) whole blood isolated from human or rodent sources, c) peripheral blood mononuclear cells (PBMC) freshly isolated from human or rodent whole blood, or d) purified fractions of PBMC (e.g., CD4 T cells). Cells are plated in 96-well plates at a final density of 1.0-2.0×10^6 cells/ml in 150 ul of assay medium (RPMI+0.5% fetal calf serum). Test compounds are included at a final concentration of ≤20 uM and generally pre-incubated with cells for 30 minutes prior to stimulation. An appropriate stimulus is added, including but not limited to, a) phytohemagglutinin (PHA), b) phorbol myristate acetate (PMA) and ionomycin, or c) stimulatory antibodies to the T cell receptor (TCR) complex (e.g., anti-CD3ε) and CD28. Cell cultures are stimulated for 24-48 hours in a humidified incubator (37 degrees C./5% CO2). A fraction of the culture supernatant is than harvested from each well and assayed for the presence of appropriate cytokine using standard ELISA. Cytokines to be analyzed may include IL-2, IL-4, IL-10, IL-17, IL-22, IFNγ, and/or TNFα. If required, the number of cytokine producing cells can be determined using intracellular staining and flow cytometry. […]
row,SMILES,IC50 [nM]
1,O=C1NCCOc2ccc(CCC3CCN(C(=O)COc4ccccc4-c4ccccc4)CC3)cc21 [Compound 284],< 1000
2,O=C(COc1ccccc1-c1ccc2nonc2c1)N1CCC(CCc2ccc3c(c2)OCO3)CC1 [Compound 174],1000 to 10000
3,N#Cc1ccc(-c2ccccc2OCC(=O)N2CCC(CCc3ccc4c(c3)OCCO4)CC2)cc1 [Compound 291],< 1000
4,O=C(COc1ccccc1-c1ccc(Cl)nc1)N1CCC(CCc2ccccc2)CC1 [Compound 271],< 1000
5,O=C(COc1ccccc1-c1ccc(O)cc1)N1CCC(CCc2ccc3c(c2)OCO3)CC1 [Compound 170],1000 to 10000
6,O=C(COc1ccccc1-c1ccccc1)N1CCC(CCc2cc3c(cc2CO)OCO3)CC1 [Compound 285],1000 to 10000
7,N#Cc1ccc(-c2ccccc2CCC(=O)N2CCC(CCc3cc(F)cc(F)c3)CC2)cc1 [Compound 226],1000 to 10000
8,COc1cccc(CCC2CCN(C(=O)CCc3ccccc3-c3ccc(C#N)cc3)CC2)c1 [Compound 227],1000 to 10000
9,Cn1ccc2cc(-c3ncccc3OCC(=O)N3CCC(CCc4ccc5c(c4)OCO5)CC3)ccc21 [Compound 379],1000 to 10000
10,COc1cccc(CCC2CCN(C(=O)COc3cccnc3-c3ccc4[nH]ncc4c3)CC2)c1 [Compound 362],1000 to 10000
11,O=C(CCc1ccccc1-c1ccc(F)cc1)N1CCC(CCc2ccc3c(c2)OCO3)CC1 [Compound 222],1000 to 10000
12,CC1CC(CCc2ccccc2)CCN1C(=O)COc1ccccc1-c1ccc(C#N)cc1 (centres unmarked) [Compound 302],< 1000
13,O=C(COc1ccccc1-c1ccc(F)cc1)N1CCC(CCc2ccccc2)CC1 [Compound 270],1000 to 10000
14,COc1cccc(CCC2CCN(C(=O)CCc3ccccc3-c3ccccc3)CC2)c1 [Compound 221],10000 to 50000
15,O=C(COc1ccccc1-c1ccccc1)N1CCC(/C=C/c2ccc3c(c2)OCO3)CC1 [Compound 253],< 1000
16,N#Cc1ccc(-c2cc(C(=O)NC3CCOCC3)ccc2OCC(=O)N2CCC(CCc3ccccc3)CC2)cc1 [Compound 368],1000 to 10000
17,N#Cc1ccc(-c2cc(C(=O)Nc3ccccc3)ccc2OCC(=O)N2CCC(CCc3ccccc3)CC2)cc1 [Compound 369],1000 to 10000
18,O=C(CCc1ccccc1-c1ccccc1)N1CCC(CCc2cc(F)cc(F)c2)CC1 [Compound 220],10000 to 50000
19,C#CCOc1cccc(CCC2CCN(C(=O)COc3ccccc3-c3ccc(C(=O)c4ccccc4)cc3)CC2)c1 [Compound 416],1000 to 10000
20,O=C(c1ccccc1)c1ccc(-c2ccccc2OCC(=O)N2CCC(CCc3ccc4c(c3)OCO4)CC2)cc1 [Compound 198],< 1000
21,CCOc1ccccc1-c1ccccc1OCC(=O)N1CCC(CCc2ccc3c(c2)OCO3)CC1 [Compound 207],< 1000

row,SMILES,IC50 [nM]
1,CN1CC(NC(=O)c2ccc(OCC(=O)N3CCC(CCc4ccccc4)CC3)c(-c3ccc(C#N)cc3)c2)C1 [Compound 367],1000 to 10000
2,N#Cc1ccc(-c2cc(C(=O)NCCO)ccc2OCC(=O)N2CCC(CCc3ccccc3)CC2)cc1 [Compound 322],1000 to 10000
3,O=C(CCc1ccccc1-c1ccc(F)cc1)N1CCC(CCc2cc(F)cc(F)c2)CC1 [Compound 223],1000 to 10000
4,NC(=O)c1cccc(-c2ccccc2OCC(=O)N2CCC(CCc3ccc4c(c3)OCO4)CC2)c1 [Compound 162],1000 to 10000
5,O=C(COc1ccccc1-c1ccccc1Oc1ccccc1)N1CCC(CCc2ccc3c(c2)OCO3)CC1 [Compound 216],< 1000
6,O=C(COc1ccccc1-c1ccc(-c2ccccc2)cc1)N1CCC(CCc2ccc3c(c2)OCO3)CC1 [Compound 218],1000 to 10000
7,N#Cc1ccc(-c2ccccc2OCC(=O)N2CCC(CCc3ccc4c(c3)NC(=O)CO4)CC2)cc1 [Compound 257],1000 to 10000
8,COc1ccc(CCC2(O)CCN(C(=O)COc3ccc(F)cc3-c3ccccc3)CC2)cc1 [Compound 176],10000 to 50000
9,COc1ccccc1CCC1CCN(C(=O)COc2ccccc2-c2ccccc2)CC1 [Compound 126],1000 to 10000
10,O=C(CSc1ccccc1-c1ccccc1)N1CCC(CCc2ccc3c(c2)OCO3)CC1 [Compound 286],1000 to 10000
11,O=C(COc1ccccc1-c1ccccc1)N1CCC(CCc2ccc(F)c(F)c2)CC1 [Compound 120],< 1000
12,Cn1ncc2cc(-c3ncccc3OCC(=O)N3CCC(CCc4ccc5c(c4)OCO5)CC3)ccc21 [Compound 375],1000 to 10000
13,O=C(COc1ccccc1-c1ccccc1F)N1CCC(CCc2ccc3c(c2)OCO3)CC1 [Compound 177],1000 to 10000
14,CC(C)Oc1cccc(CCC2CCN(C(=O)COc3ccccc3-c3ccc(C#N)cc3OCc3ccccc3)CC2)c1 [Compound 442],< 1000
15,CCOc1ccc(-c2ccccc2OCC(=O)N2CCC(CCc3ccc4c(c3)OCO4)CC2)cc1 [Compound 186],1000 to 10000
16,N#Cc1ccc(-c2cccnc2OCC(=O)N2CCC(CCc3ccc4c(c3)OCO4)CC2)cc1 [Compound 324],1000 to 10000
17,CC1Oc2ccc(CCC3CCN(C(=O)COc4ccccc4-c4ccc5[nH]ncc5c4)CC3)cc2OC1C (centres unmarked) [Compound 268],< 1000
18,N#Cc1ccc(-c2ccccc2OCC(=O)N2CCC(CCc3ccccc3)CC2)cc1 [Compound 269],< 1000
19,O=C(COc1ccccc1-c1ccc2[nH]ncc2c1)N1CCC(CCc2ccc(O)cc2)CC1 [Compound 281],< 1000
20,O=C(COc1cccnc1-c1ccc2[nH]ccc2c1)N1CCC(CCc2ccccc2)CC1 [Compound 376],1000 to 10000
21,COc1ccc(-c2ccccc2OCC(=O)N2CCC(CCc3ccc4c(c3)OCO4)CC2)cc1 [Compound 189],1000 to 10000

# Further lines, results first:
row,IC50 [nM],SMILES
1,1000 to 10000,O=C(COc1ccc(C(F)(F)F)cc1-c1ccc(F)cc1O)N1CCC(CCc2cccc(OCCN3CCOCC3)c2)CC1 [Compound 356]
2,< 1000,N#Cc1ccc(OCC(=O)N2CCC(CCc3ccc4c(c3)OCCO4)CC2)c(-c2ccc(F)cc2O)c1 [Compound 347]
3,< 1000,CC(C)Oc1ccc(CCC2CCN(C(=O)COc3ccccc3-c3ccc(F)cc3O)CC2)cc1 [Compound 432]
4,< 1000,N#Cc1ccc(-c2ccccc2OCC(=O)N2CCC(CCc3cccc(OC(F)F)c3)CC2)cc1 [Compound 434]
5,< 1000,NC(=O)c1ccc(OCC(=O)N2CCC(CCc3ccccc3)CC2)c(-c2ccc(F)cc2O)c1 [Compound 320]
6,< 1000,O=C(COc1ccccc1-c1ccc(F)cc1O)N1CCC(CCc2cccc(C(F)(F)F)c2)CC1 [Compound 310]
7,< 1000,O=C(COc1cccnc1-c1ccc(F)cc1O)N1CCC(CCc2cccc(OC3CCCC3)c2)CC1 [Compound 410]
8,10000 to 50000,O=C(O)c1cccc(-c2ccccc2OCC(=O)N2CCC(CCc3ccc4c(c3)OCO4)CC2)c1 [Compound 158]
9,< 1000,N#Cc1ccc(-c2ccccc2OCC(=O)N2CCC(CCc3ccc4c(c3)OCO4)CC2)c(F)c1 [Compound 251]
10,1000 to 10000,O=C(COc1ccccc1-c1ccc(OC(F)(F)F)cc1)N1CCC(CCc2ccc3c(c2)OCO3)CC1 [Compound 178]
11,1000 to 10000,O=C(COc1ccccc1-c1cccc(F)c1)N1CCC(CCc2ccc3c(c2)OCO3)CC1 [Compound 187]
12,< 1000,O=C(COc1ccccc1-c1cccc(C(F)(F)F)c1)N1CCC(CCc2ccc3c(c2)OCO3)CC1 [Compound 204]
13,< 1000,COc1cccc(CCC2CCN(C(=O)COc3ccccc3-c3ccc(F)cc3O)CC2)c1 [Compound 304]
14,1000 to 10000,O=C(COc1ccccc1-c1ccnc(N2CCOCC2)c1)N1CCC(CCc2ccc3c(c2)OCO3)CC1 [Compound 161]
15,1000 to 10000,O=C(COc1ccccc1-c1ccc(F)cc1O)N1CCC(CCc2cccc(OCCN3CCOCC3)c2)CC1 [Compound 355]
16,< 1000,CCOc1ccc(CCC2CCN(C(=O)COc3ccccc3-c3ccc(F)cc3O)CC2)cc1 [Compound 309]
17,< 1000,CC(C)Oc1cccc(CCC2CCN(C(=O)COc3ccccc3-c3ccc(C#N)cc3O)CC2)c1 [Compound 443]
18,< 1000,O=C(COc1ccccc1-c1ccc(C(F)(F)F)cc1F)N1CCC(CCc2ccc3c(c2)OCO3)CC1 [Compound 237]
19,1000 to 10000,COc1cccc(CCC2CCN(C(=O)COc3cccnc3-c3ccc4c(ccn4C)c3)CC2)c1 [Compound 378]
20,1000 to 10000,Cn1ccc2cc(-c3ncccc3OCC(=O)N3CCC(CCc4cccc(OCCN5CCOCC5)c4)CC3)ccc21 [Compound 380]
21,10000 to 50000,O=C(COc1ccccc1-c1ccc(F)cc1F)N1CCC(CCc2ccc3c(c2)OCO3)CC1 [Compound 236]
22,< 1000,CC(C)Oc1cccc(CCC2CCN(C(=O)COc3ccccc3-c3cc(C#N)ccc3O)CC2)c1 [Compound 441]
23,1000 to 10000,O=C(COc1ccccc1-c1ccc(F)cc1O)N1CCC(CCc2cccc(OCCN3CCCC3)c2)CC1 [Compound 359]
24,1000 to 10000,O=C(COc1ccccc1-c1ccc(F)cc1O)N1CCC(CCc2ccncc2)CC1 [Compound 392]
25,< 1000,O=C(COc1ccccc1-c1ccc(F)cc1O)N1CCC(CCc2ccc3c(c2)OCO3)CC1 [Compound 288]
26,1000 to 10000,O=C(COc1ccccc1-c1ccccc1CN1CCOCC1)N1CCC(CCc2ccc3c(c2)OCO3)CC1 [Compound 228]
27,< 1000,O=C(COc1ccccc1-c1ccc(C(F)(F)F)cc1)N1CCC(CCc2ccc3c(c2)OCO3)CC1 [Compound 203]
28,1000 to 10000,O=C(COc1ccccc1-c1ccc(F)cc1O)N1CCC(CCc2cccnc2)CC1 [Compound 393]
29,10000 to 50000,O=C(COc1ccccc1-c1ccc2cc[nH]c2c1)N1CCC(CCc2ccc3c(c2)OCCCO3)CC1 [Compound 343]
